Measured values as given in publication PMC10002375, “Synthesis of 3-(2-Alkylthio-4-chloro-5-methylbenzenesulfonyl)-2-(1-phenyl-3-arylprop-2-enylideneamino)guanidine Derivatives with Pro-Apoptotic Activity against Cancer Cells” (International Journal of Molecular Sciences, 2023).

Experiments:
MCF-7 (breast cancer) = assay: MTT cell viability assay, MCF-7; format: cell-based, human; settings: for IC50: MTT, 72 h; for Selectivity Index MCF-7/HaCaT: MCF-7 versus HaCaT, from IC50 values
Source text: (§1) The cytotoxic activity of the compounds 8–33 has been evaluated in MTT assays against three human cancer cell lines MCF-7 (breast cancer), HeLa (cervical cancer), and HCT-116 (colon cancer) and it was expressed as IC50 values in μM (Table 1).
(§2) All chemicals, if not stated otherwise, were obtained from Sigma-Aldrich (St. Louis, MO, USA). The MCF-7 cell line was purchased from Cell Lines Services (Eppelheim, Germany), the HeLa and HCT-116 cell lines were obtained from the Department of Microbiology, Tumor and Cell Biology, Karolinska Institute (Stockholm, Sweden). Cells were cultured in Dulbecco’s modified Eagle’s medium (DMEM) supplemented with 10% fetal bovine serum, 2 mM glutamine, 100 units/mL penicillin, and 100 μg/mL streptomycin. Cultures were maintained in a humidified atmosphere with 5% CO2 at 37 °C in an incubator (HeraCell, Heraeus, Langenselbold, Germany).
(§3) Cell viability was determined using the MTT (3-(4,5-dimethylthiazol-2-yl)-2,5-diphenyl-tetrazoliumbromide) assay. Stock solutions of the studied compounds were prepared in 100% DMSO. […] Cells were seeded in 96-well plates at a density of 5 × 10^3 cells/well and treated for 72 h with the examined compounds in the concentration range 1–100 μM (1, 10, 25, 50, and 100 μM). Following treatment, MTT (0.5 mg/mL) was added to the medium and cells were further incubated for 2 h at 37 °C. Cells were lysed with DMSO and the absorbance of the formazan solution was measured at 550 nm with a plate reader (1420 multilabel counter, Victor, Jügesheim, Germany). […] The experiment was performed in triplicate. Values are expressed as the mean ± SD of at least three independent experiments.

HaCaT cells = assay: MTT assay with non-cancerous HaCaT cell line; format: cell-based; settings: 72 h
Procedure: The important feature of new cytotoxic agents is their selective activity against cancer cells with a weak impact on the physiology of healthy cells. Determination of the selectivity of compounds 14–19 and 24–29 was done by MTT assay with the non-cancerous HaCaT cell line (Table 2). […] A similar effect was observed also for compound 26. […] Due to the excellent selectivity of compound 30 towards HCT-116 cells and at the same time high cytotoxicity towards this cell line (IC50 = 8 μM); derivative 30 may be a good hit compound for the search for chemotherapeutic agents for the treatment of colon cancer.
as §3

HeLa (cervical cancer) = assay: MTT cell viability assay, HeLa; format: cell-based, human; settings: for IC50: Homo sapiens, HeLa, MTT, 72 h; for Selectivity Index HeLa/HaCaT: HeLa versus HaCaT, from IC50 values
Procedure: as §2, §3

HCT-116 (colon cancer) = assay: MTT cell viability assay, HCT-116; format: cell-based, human; settings: for IC50: Homo sapiens, HCT-116, MTT, 72 h; for Selectivity Index HCT-116/HaCaT: HCT-116 versus HaCaT, from IC50 values
Procedure: as §2, §3

[1] = tested on: MCF-7, HeLa and HCT-116 cells; assay: MTT assay, mean over three tested cancer cell lines; format: cell-based, human
Procedure: as §1
Although the highest activity of the compounds with hydroxyl groups as the R^2 residue was against colon cancer cells, the inhibition of the growth of breast cancer cells was also remarkable.
as §3

| Structure (SMILES) | IC50 (MCF-7 (breast cancer)) | IC50 (HaCaT cells) | IC50 (HeLa (cervical cancer)) | IC50 (MCF-7 (breast cancer); Homo sapiens, MCF7) | IC50 (HCT-116 (colon cancer)) | Selectivity Index HeLa/HaCaT (HeLa (cervical cancer)) | Selectivity Index MCF-7/HaCaT (MCF-7 (breast cancer)) | IC50 (HaCaT cells; Homo sapiens, HaCaT) | Selectivity Index HCT-116/HaCaT (HCT-116 (colon cancer)) | selectivity ratio, mean IC50 against cancer cells versus IC50 for HaCaT ([1]; HaCaT versus mean of three cancer cell lines) | IC50 ([1]; Homo sapiens, mean of MCF-7, HeLa, HCT-116, MTT, 72 h, read-out: mean IC50 against three tested cell lines) | melting point |
| --- | --- | --- | --- | --- | --- | --- | --- | --- | --- | --- | --- | --- |
| N.N.[Cl][Pt][Cl] [Cisplatin, reference compound] | 3 ± 0.1 µM | 7.7 ± 0.2 µM | – | – | – | – | – | – | – | – | – | – |
| Cc1cc(S(=O)(=O)NC(N)=NN=C(C=Cc2ccccc2)c2ccccc2)c(SCc2ccccc2)cc1Cl [Compound 8] | – | – | 120 ± 8 µM | 130 ± 8 µM | 167 ± 7 µM | – | – | – | – | – | – | – |
| Cc1cc(S(=O)(=O)NC(N)=NN=C(C=Cc2ccccc2O)c2ccccc2)c(SCc2ccccc2)cc1Cl [Compound 9] | – | – | 17 ± 1 µM | 18 ± 1 µM | 11 ± 0.5 µM | 2.1 | 1.9 | 35 ± 1 µM | 3.2 | – | – | – |
| Cc1cc(S(=O)(=O)NC(N)=NN=C(C=Cc2ccc(O)cc2)c2ccccc2)c(SCc2ccccc2)cc1Cl [Compound 10] | – | – | 15 ± 1 µM | 15 ± 1 µM | 9 ± 0.1 µM | 2.1 | 2.1 | 31 ± 1 µM | 3.4 | – | – | – |
| COc1ccc(C=CC(=NN=C(N)NS(=O)(=O)c2cc(C)c(Cl)cc2SCc2ccccc2)c2ccccc2)cc1 [Compound 11] | – | – | – | 330 ± 17 µM | 300 ± 21 µM | – | – | – | – | – | – | – |
| Cc1cc(S(=O)(=O)NC(N)=NN=C(C=Cc2ccc(Cl)cc2)c2ccccc2)c(SCc2ccccc2)cc1Cl [Compound 12] | – | – | 190 ± 10 µM | 210 ± 13 µM | 113 ± 6 µM | – | – | – | – | – | – | – |
| Cc1cc(S(=O)(=O)NC(N)=NN=C(C=Cc2ccc([N+](=O)[O-])cc2)c2ccccc2)c(SCc2ccccc2)cc1Cl [Compound 13] | – | – | 340 ± 31 µM | 370 ± 20 µM | 320 ± 10 µM | – | – | – | – | – | – | – |
| Cc1cc(S(=O)(=O)NC(N)=NN=C(C=Cc2ccccc2O)c2ccccc2)c(SCc2ccccc2C)cc1Cl [Compound 14] | – | – | 18 ± 1 µM | 13 ± 0.6 µM | 9 ± 0.1 µM | 1.7 | 2.4 | 31 ± 2 µM | 3.4 | – | – | – |
| Cc1cccc(CSc2cc(Cl)c(C)cc2S(=O)(=O)NC(N)=NN=C(C=Cc2ccccc2O)c2ccccc2)c1 [Compound 16] | – | – | 36 ± 2 µM | 20 ± 0.5 µM | 17 ± 0.1 µM | ns | 2.0 | 41 ± 2 µM | 2.4 | – | – | – |
| Cc1cccc(CSc2cc(Cl)c(C)cc2S(=O)(=O)NC(N)=NN=C(C=Cc2ccc(O)cc2)c2ccccc2)c1 [Compound 17] | – | – | 21 ± 1 µM | 17 ± 1 µM | 12 ± 0.6 µM | 1.7 | 2.1 | 35 ± 2 µM | 2.9 | – | – | – |
| Cc1ccc(CSc2cc(Cl)c(C)cc2S(=O)(=O)NC(=N)N/N=C(/C=C/c2ccccc2)c2ccccc2)cc1 [Compound 18] | – | – | 200 ± 10 µM | 260 ± 15 µM | 160 ± 5 µM | – | – | – | – | – | – | – |
| Cc1ccc(CSc2cc(Cl)c(C)cc2S(=O)(=O)NC(N)=NN=C(C=Cc2ccc(O)cc2)c2ccccc2)cc1 [Compound 20, 3-{4-Chloro-2-[(4-methylphenyl)methylthio]-5-methylbenzenesulfonyl}-2-[3-(4-hydroxyphenyl)-1-phenylprop-2-enylideneamino]guanidine] | – | – | 15 ± 1 µM | 15 ± 1 µM | 8.5 ± 0.2 µM | 2.1 | 2.1 | 31 ± 1 µM | 3.6 | 2.42 | 12.8 µM | – |
| COc1ccc(C=CC(=NN=C(N)NS(=O)(=O)c2cc(C)c(Cl)cc2SCc2ccc(C)cc2)c2ccccc2)cc1 [Compound 21] | – | – | 250 ± 12 µM | 150 ± 10 µM | 235 ± 5 µM | – | – | – | – | – | – | – |
| Cc1ccc(CSc2cc(Cl)c(C)cc2S(=O)(=O)NC(N)=NN=C(C=Cc2ccc(Cl)cc2)c2ccccc2)cc1 [Compound 22] | – | – | 705 ± 35 µM | 193 ± 10 µM | 183 ± 13 µM | – | – | – | – | – | – | 172 to 177 °C |
| Cc1ccc(CSc2cc(Cl)c(C)cc2S(=O)(=O)NC(N)=NN=C(C=Cc2ccc([N+](=O)[O-])cc2)c2ccccc2)cc1 [Compound 23] | – | – | 170 ± 10 µM | 280 ± 17 µM | – | – | – | – | – | – | – | – |
| Cc1cc(S(=O)(=O)NC(N)=NN=C(C=Cc2ccc(O)cc2)c2ccccc2)c(SCc2ccccc2Cl)cc1Cl [Compound 25] | – | – | 18 ± 0.5 µM | 19 ± 1 µM | 15 ± 0.6 µM | 2.3 | 2.2 | 41 ± 2 µM | 2.7 | – | – | – |
| Cc1cc(S(=O)(=O)NC(N)=NN=C(C=Cc2ccccc2O)c2ccccc2)c(SCc2cccc(Cl)c2)cc1Cl [Compound 26] | – | – | 19 ± 0.5 µM | 13 ± 0.6 µM | 10 ± 0.4 µM | 2.0 | 2.9 | 38 ± 2 µM | 3.8 | – | – | – |
| Cc1cc(S(=O)(=O)NC(N)=NN=C(C=Cc2ccc(O)cc2)c2ccccc2)c(SCc2cccc(Cl)c2)cc1Cl [Compound 27] | – | – | 20 ± 0.5 µM | 16 ± 1 µM | 12 ± 0.1 µM | 1.8 | 2.3 | 37 ± 2 µM | 3.1 | – | – | – |
| Cc1cc(S(=O)(=O)NC(N)=NN=C(C=Cc2ccccc2)c2ccccc2)c(SCc2ccc(Cl)cc2)cc1Cl [Compound 28] | – | – | 20 ± 1 µM | 230 ± 12 µM | 220 ± 11 µM | – | – | 99 ± 3 µM | – | – | – | – |
| Cc1cc(S(=O)(=O)NC(N)=NN=C(C=Cc2ccccc2O)c2ccccc2)c(SCc2ccc(Cl)cc2)cc1Cl [Compound 29] | – | – | 41 ± 2 µM | 19 ± 1 µM | 18 ± 0.4 µM | ns | 2.4 | 45 ± 3 µM | 2.5 | – | – | – |
| Cc1cc(S(=O)(=O)NC(N)=NN=C(C=Cc2ccc(O)cc2)c2ccccc2)c(SCc2ccc(Cl)cc2)cc1Cl [Compound 30, 3-{4-chloro-2-[(4-chlorophenyl)methylthio]-5-methylbenzenesulfonyl}-2-[3-(4-hydroxyphenyl)-1-phenylprop-2-enylideneamino]guanidine] | – | – | 37 ± 1 µM | 18 ± 1 µM | 8 ± 0.2 µM | 2.3 | 4.7 | 85 ± 2 µM | 10.6 | – | – | – |
| Cc1cc(S(=O)(=O)NC(N)=NN=C(C=Cc2ccc([N+](=O)[O-])cc2)c2ccccc2)c(SCc2ccc(Cl)cc2)cc1Cl [Compound 33] | – | – | 110 ± 3 µM | 220 ± 12 µM | 450 ± 27 µM | – | – | – | – | – | – | – |
